Measured values from patent US10172796B2, “Use of umirolimus and its derivatives for treating cancer” (Manli International Ltd., priority 2012, dated 2019).

Key:
[1] = system: SNU-16/gastric; assay: CellTiter-Glo luminescent cell viability assay, SNU-16; format: cell-based, human; conditions: 72 hours of in vitro culture
Procedure: (§1) Umirolimus was added to cultured cell lines derived from 9 types of human cancer. After 72 hours of in vitro culture, the 50% inhibitory concentration (IC50) of umirolimus on cell growth was measured using the CellTiter-Glo luminescent cell viability assay.

[2] = system: BxPC-3/pancreatic; assay: CellTiter-Glo luminescent cell viability assay, BxPC-3; format: cell-based, human; conditions: 72 hours of in vitro culture
Procedure: as §1

[3] = system: AZ-521/gastric; assay: CellTiter-Glo luminescent cell viability assay, AZ-521; format: cell-based, human; conditions: 72 hours of in vitro culture
Procedure: as §1

[4] = system: RPMI-8226/multiple myeloma; assay: CellTiter-Glo luminescent cell viability assay, RPMI-8226; format: cell-based, human; conditions: 72 hours of in vitro culture
Procedure: as §1

[5] = system: NCI-H460/lung; assay: CellTiter-Glo luminescent cell viability assay, NCI-H460; format: cell-based, human; conditions: 72 hours of in vitro culture
Procedure: as §1

[6] = system: A2780/ovarian; assay: CellTiter-Glo luminescent cell viability assay, A2780; format: cell-based, human; conditions: 72 hours of in vitro culture
Procedure: as §1

[7] = system: SK-HEP-1/liver; assay: CellTiter-Glo luminescent cell viability assay, SK-HEP-1; format: cell-based, human; conditions: 72 hours of in vitro culture
Procedure: as §1

[8] = system: K562/chronic myelogenous leukemia; assay: CellTiter-Glo luminescent cell viability assay, K562; format: cell-based, human; conditions: 72 hours of in vitro culture
Procedure: as §1

[9] = system: SK-MES-1/lung; assay: CellTiter-Glo luminescent cell viability assay, SK-MES-1; format: cell-based, human; conditions: 72 hours of in vitro culture
Procedure: as §1

[10] = system: SW620/colorectal; assay: CellTiter-Glo luminescent cell viability assay, SW620; format: cell-based, human; conditions: 72 hours of in vitro culture
Procedure: as §1

[11] = system: MDA-MB-231/breast; assay: CellTiter-Glo luminescent cell viability assay, MDA-MB-231; format: cell-based, human; conditions: 72 hours of in vitro culture
Procedure: as §1

[12] = system: 11 cell lines from 9 types of human cancers; assay: CellTiter-Glo cell viability assay, summary over the cell line panel; format: cell-based; conditions: summary for all 11 cell lines of Table 1
Procedure: as §1

[13] = system: 10 human cancer cell lines; assay: Inhibition of cancer cell growth by umirolimus as compared to sirolimus and everolimus; format: cell-based; conditions: 8 out of the 10 cancer cell lines tested: A2780, SK-HEP-1, DLD-1, SNU-16, BxPC-3, 786-O, SK-MES-1, AZ-521; FIG. 1
Procedure: as §1
The IC50 for 3 “limus” drugs for inhibiting the growth of 10 human cancer cell is lines was measured using the CellTiter-Glo luminescent cell viability assay as described in Example 1. The ten exemplary human cancer cell lines tested were SK-MES-1 (lung cancer), BxPC-3 (pancreatic cancer), AZ-521 (gastric cancer), SNU-16 (gastric cancer), SK-HEP-1 (liver cancer), A2780 (ovarian cancer), MDA-MB-231 (breast cancer), DLD-1 (colorectal cancer), DU-145 (prostate cancer) and 786-O (kidney cancer).

[14] = See J. Med. Chem. 2000, 43:2922-2928; cited from earlier work

CCOCCO[C@@H]1CC[C@@H](C[C@@H](C)[C@@H]2CC(=O)[C@H](C)/C=C(\C)[C@@H](O)[C@@H](OC)C(=O)[C@H](C)C[C@H](C)/C=C/C=C/C=C(\C)[C@@H](OC)C[C@@H]3CC[C@@H](C)[C@@](O)(O3)C(=O)C(=O)N3CCCC[C@H]3C(=O)O2)C[C@H]1OC [umirolimus]
IC50 [1]: 1.14 µM | Maximum inhibition [1]: 99.75% | IC50 [2]: 3.07 µM | Maximum inhibition [2]: 77.24% | IC50 [3]: 4.23 µM | Maximum inhibition [3]: 99.88% | IC50 [4]: 6.8 µM | Maximum inhibition [4]: 99.26% | IC50 [5]: 7.07 µM | Maximum inhibition [5]: 88.99% | IC50 [6]: 7.31 µM | Maximum inhibition [6]: 100.19% | IC50 [7]: 7.81 µM | Maximum inhibition [7]: 99.97% | IC50 [8]: 7.97 µM | Maximum inhibition [8]: 98.49% | IC50 [9]: 8.24 µM | Maximum inhibition [9]: 96.57% | IC50 [10]: 8.33 µM | Maximum inhibition [10]: 55.69% | IC50 [11]: 9.52 µM | Maximum inhibition [11]: 99.23% | IC50 [12]: < 10 µM | IC50 compared to sirolimus and everolimus [13]: superior to that of sirolimus and everolimus | lipophilicity as compared to sirolimus and everolimus [14]: 10 times
